Data from patent publication US12491246B2, “Combination therapy of arms and natural killer cells” (KLEO PHARMACEUTICALS, INC., priority 2018, dated 2025).
Where “and” joins values, the source holds several entries; their conditions need not be identical. Equal values may be shown once.

Legend:
non-CIML NK cells = experiment: NK cell fratricide assay, non-CIML control NK cells; type: cell-based; conditions: daratumumab treatment, 2 hr
Protocol: (§1) PBMC isolation: Leukopheresis product from a donor with body mass index (BMI) between 19-25, under 50 years old, not on immuno-suppressive drugs for at least 2 weeks with an estimated PBMC cell count of >10^10 was obtained from Key Biologics (subject ID 20982200) and transported at ambient temperature. Leukopheresis bag was wiped down with 70% EtOH, a small slit was made and contents were pipetted off into tubes. Leukopak contents were diluted 1:1 with PBS without Ca++/Mg++ and 20 ml of this mixture was layered on top of 25 mL of Ficoll. Tubes were then centrifuged at 400 g for 30 minutes without brakes. PBMCs were harvested from the interface into separate tubes, and tubes were filled to 50 mL with PBS. Cells were centrifuged for 10 min at 120 g to get rid of platelets. Supernatant was poured off and cells were re-suspended in RPMI 10% FBS at a concentration of 7-10×10^6 cells/ml. Cells were cultured overnight at 37C in a 5% CO2 atmosphere until NK cell isolation.
NK cell isolation: PBMC were centrifuged at 400 g for 10 min and re-suspended in EasySep buffer. NK cells were isolated using NK cell isolation kits from STEMCELL Technologies according to kit's manufacturers' instructions. NK cell purity and phenotype was assessed by trypan Blue and flow cytometry using the following antibody cocktail: anti-CD56PE, CD3 APC, and viability was determined using staining with Trypan Blue exclusion dye, and by flow cytometry using Near Infra-Red Fixable viability dye (Thermo Fisher). […]
Purity and viability of NK cells and CIML NK cells: Among other things, the present disclosure provides highly pure and viable NK cell populations following isolation from PBMC. […] After an overnight incubation, purity and viability were assessed in the cultured cell populations. […]
(§2) NK cell fratricide (death directed at NK cells in the same culture) was assessed by flow cytometry following a 2 hr incubation with the CD38 ARM at indicated concentrations in the presence or absence of 500 μg/ml intravenous immune globulin (IVIG). […]

CIML NK cells = experiment: CIML NK cell fratricide assay; type: cell-based; conditions: CIML NK cells; 3 μg/ml or 20.1 nM; 2 hours post-incubation
Protocol: as §1
NK cell isolation: PBMC were centrifuged at 400 g for 10 min and re-suspended in EasySep buffer. NK cells were isolated using NK cell isolation kits from STEMCELL Technologies according to kit's manufacturers' instructions. NK cell purity and phenotype was assessed by trypan Blue and flow cytometry using the following antibody cocktail: anti-CD56PE, CD3 APC, and viability was determined using staining with Trypan Blue exclusion dye, and by flow cytometry using Near Infra-Red Fixable viability dye (Thermo Fisher).
CIML NK cell generation: Isolated NK cells were re-suspended at 2×10^6 cells/ml in XVIVO 10% Human Serum and the following concentrations IL-15 (50 ng/ml), IL-12 (10 ng/ml), IL-18(50 ng/ml) for 12 to 18 hrs. […]
as §2

LNCap cells = experiment: Ternary complex formation of ARM, antibody and target cells (flow cytometry); type: cell-based, human; conditions: 20 ug/ml rabbit anti-DNP Alexa 488, 4 C 30 min, mean fluorescence
Protocol: Various technologies are suitable for assessing complex formation. One example such assay was described below. Those skilled in the art appreciate that one or more parameters and/or conditions may be adjusted and other assays/reagents/conditions, etc., can also be utilized.
Adherent cells (LNCap, CRL-1740, for example results below) were harvested using Accumax (Sigma-Aldrich A7089-100 ml). Compounds were diluted in DMSO (MP 191418) to 1000× the starting concentration used in the assay into a 96 well polypropylene plate (Corning 3357). They were then serially diluted in ½ log increments to generate 8-12 concentrations in DMSO (assay dependent). These DMSO stocks were then step diluted 1/10 into PBS (VWR Cat. #20012043). The step diluted compound range was then added into the polypropylene assay plate 1/100 the volume of the assay volume. The cells used for the assay were counted and centrifuged and resuspended at a concentration of 100,000 cells per 200 ul in Flow buffer: 1% BSA (American Bio AB01088-00100); 0.5 mM EDTA (VWR 45001-122); PBS (VWR Cat. #20012043) with 20 ug/ml rabbit anti-DNP Alexa 488 (Thermo Fisher Scientific A11097). The cells were then added into the polypropylene plate with the step diluted compounds and incubated at 4 C 30 min. At the end of the incubation, the cells were centrifuged and washed 2× with Flow buffer containing 0.5% Tween 20 (BP337-500). Samples were analyzed on a BD FacsCelesta. Mean fluorescence was analyzed using Graphpad Prism and curves were fit using log (inhibitor) vs. response-Variable slope (four parameters).

[1] = system: LNCaP target cells and reporter cells with CD16a-158V/V variant; experiment: ADCC reporter assay; type: cell-based, human
Protocol: In one example, LNCaP cells (human prostate cancer derived, ATCC: CRL-1740) were detached and re-suspended in 1% BSA in RPMI. Cell solution was filtered to remove cell aggregate (polystyrene tube with cell strainer, Corning: 352235) before being counted (Life Technologies Countless II cell counter) and plated (10,000 cells in 25 μL/well; Corning plates: 3917). The plated was centrifuged (5 min, 300×g) and the compound solutions (25 μL/well) were added immediately after. The antibody solutions (25 μL/well, IgG1 FC-Thermo Fisher: 10702HNAH5; Dintrophenyl-KLH polyclonal antibody-Thermo Fisher: A-6430) were added following a 45 min incubation at 37° C. The plate was then incubated with the antibody solution for 45 min to allow for cell-ARM-antibody ternary complex formation before the addition of the effector cells (60 K in 25 μL/well, ADCC reporter cells—Promega kit: G7018). The plate was centrifuged (5 min, 300×g) and effector cells were incubated for an 5 h at 37° C. Following the induction period the plate was equilibrated to 25° C. followed the addition of the luciferase substrate (75 μL/well, 1 vial in 10 mL of Bio-Glo assay buffer, Promega kit: G7018). The plate was then centrifuged (5 min, 300×g) and the luminescence was measured (Biotek Synergy H1 microplate reader).
An example set of data are present below:
LNCaP target cells and reporter cells with CD16a-158V/V variant

daratumumab [reference compound]
total increase in dead NK cells over DMSO treated control (non-CIML NK cells): 5.6% | increase in the percentage of dead NK cells (CIML NK cells): 4%

CC(C)C[C@@H]1NC(=O)[C@H](Cc2c[nH]cn2)NC(=O)[C@H](Cc2c[nH]c3ccccc23)NC(=O)[C@H](C)NC(=O)[C@@H](NC(=O)[C@@H](N)CC(=O)O)CSSC[C@@H](C(=O)N[C@H](C(=O)NCCOCCOCCOCCOCCOCCOCCOCCOCc2cn(CCCC[C@H](NC(=O)N[C@@H](CCC(=O)O)C(=O)O)C(=O)O)nn2)[C@@H](C)O)NC(=O)[C@H](Cc2c[nH]c3ccccc23)NC(=O)[C@H](C(C)C)NC(=O)[C@H](CC(C)C)NC(=O)[C@H](CCC(=O)O)NC(=O)CNC1=O [Compound I-16]
EC50 (LNCap cells): 7.4 nM

CC(C)C[C@@H]1NC(=O)[C@H](Cc2c[nH]cn2)NC(=O)[C@H](Cc2c[nH]c3ccccc23)NC(=O)[C@H](C)NC(=O)[C@@H](NC(=O)[C@H](CC(=O)O)NC(=O)CCOCCOCCOCCOCCOCCOCCOCCOCc2cn(CCCC[C@H](NC(=O)N[C@@H](CCC(=O)O)C(=O)O)C(=O)O)nn2)CSSC[C@@H](C(=O)N[C@H](C(=O)O)[C@@H](C)O)NC(=O)[C@H](Cc2c[nH]c3ccccc23)NC(=O)[C@H](C(C)C)NC(=O)[C@H](CC(C)C)NC(=O)[C@H](CCC(=O)O)NC(=O)CNC1=O [Compound I-11]
EC50 (LNCap cells): 6.6 nM | Luminescence (background substracted) ([1]; I-11 3.2 nM, IgG1 FC (20 nM)): 165.5 and 123.5 | Luminescence (background substracted) ([1]; I-11 3.2 nM, IgG1 FC (200 nM)): 172 and 189 | Luminescence (background substracted) ([1]; I-11 3.2 nM, anti-DNP (20 ug/mL)): 128.5 and 86.5 | Luminescence (background substracted) ([1]; I-11 16 nM, IgG1 FC (20 nM)): 667.5 and 621.5 | Luminescence (background substracted) ([1]; I-11 16 nM, IgG1 FC (200 nM)): 1216 and 1040 | Luminescence (background substracted) ([1]; I-11 16 nM, anti-DNP (20 ug/mL)): 934.5 and 855.5 | Luminescence (background substracted) ([1]; I-11 80 nM, IgG1 FC (20 nM)): 1251.5 and 1037.5 | Luminescence (background substracted) ([1]; I-11 80 nM, IgG1 FC (200 nM)): 1708 and 1823 | Luminescence (background substracted) ([1]; I-11 80 nM, anti-DNP (20 ug/mL)): 1635.5 and 1605.5 | Luminescence (background substracted) ([1]; I-11 400 nM, IgG1 FC (20 nM)): 797.5 and 679.5 | Luminescence (background substracted) ([1]; I-11 400 nM, IgG1 FC (200 nM)): 1827 and 1494 | Luminescence (background substracted) ([1]; I-11 400 nM, anti-DNP (20 ug/mL)): 1842.5 and 1696.5 | Luminescence (background substracted) ([1]; I-11 2000 nM, IgG1 FC (20 nM)): 151.5 and 163.5 | Luminescence (background substracted) ([1]; I-11 2000 nM, IgG1 FC (200 nM)): 1372 and 1118 | Luminescence (background substracted) ([1]; I-11 2000 nM, anti-DNP (20 ug/mL)): 1374.5 and 1253.5

CC(C)C[C@@H]1NC(=O)[C@H](Cc2c[nH]cn2)NC(=O)[C@H](Cc2c[nH]c3ccccc23)NC(=O)[C@H](C)NC(=O)[C@@H](NC(=O)[C@H](CC(=O)O)NC(=O)CCOCCOCCOCCOCCOCCOCCOCCOCc2cn(CCCC[C@H](NC(=O)N[C@@H](CCC(=O)O)C(=O)O)C(=O)O)nn2)CSSC[C@@H](C(=O)N[C@H](C(=O)O)[C@@H](C)O)NC(=O)[C@H](Cc2c[nH]c3ccccc23)NC(=O)[C@H](C(C)C)NC(=O)[C@H](CC(C)C)NC(=O)[C@H](CCC(=O)O)NC(=O)CNC1=O [Compound I-34]
EC50 (LNCap cells): 8.7 nM

CC(C)C[C@@H]1NC(=O)[C@H](Cc2c[nH]cn2)NC(=O)[C@H](Cc2c[nH]c3ccccc23)NC(=O)[C@H](C)NC(=O)[C@@H](NC(=O)[C@H](CC(=O)O)NC(=O)CCOCCOCCOCCOCCOCCOCc2cn(CCCC[C@H](NC(=O)N[C@@H](CCC(=O)O)C(=O)O)C(=O)O)nn2)CSSC[C@@H](C(=O)N[C@H](C(=O)O)[C@@H](C)O)NC(=O)[C@H](Cc2c[nH]c3ccccc23)NC(=O)[C@H](C(C)C)NC(=O)[C@H](CC(C)C)NC(=O)[C@H](CCC(=O)O)NC(=O)CNC1=O [Compound I-33]
EC50 (LNCap cells): 3 nM
